In one test the target is T1, α9α10 nAChR (Homo sapiens, UniProt Q9GZZ6+Q9UGM1).
T1 construct: gene CHRNA9; with nAChR subunit α10 (CHRNA10)
Nature of the test: two-electrode voltage clamp, Xenopus oocytes, concentration-response (partial agonist). Type of test: cell-based. For orientation: Two-electrode voltage clamp is typically applied to oocytes expressing channels or transporters.

A further test deals with T2, α9 nAChR (Homo sapiens, UniProt Q9UGM1).
T2 construct: gene CHRNA9
The test is described as above. Type of test: cell-based.

T1 sequence (Q9UGM1 23-479): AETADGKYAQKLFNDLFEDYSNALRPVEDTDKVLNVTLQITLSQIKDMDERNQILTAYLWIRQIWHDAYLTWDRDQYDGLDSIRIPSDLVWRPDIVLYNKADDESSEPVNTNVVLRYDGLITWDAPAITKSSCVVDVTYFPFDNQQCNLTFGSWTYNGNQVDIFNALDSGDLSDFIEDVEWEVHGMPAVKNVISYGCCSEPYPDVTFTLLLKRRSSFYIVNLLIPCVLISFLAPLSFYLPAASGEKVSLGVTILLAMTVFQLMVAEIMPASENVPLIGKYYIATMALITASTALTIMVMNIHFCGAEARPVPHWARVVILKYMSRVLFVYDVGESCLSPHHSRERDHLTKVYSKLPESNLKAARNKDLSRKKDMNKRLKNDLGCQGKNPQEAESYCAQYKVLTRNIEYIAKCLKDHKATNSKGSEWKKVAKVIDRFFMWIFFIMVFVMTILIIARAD
T1 sequence (Q9GZZ6 25-450): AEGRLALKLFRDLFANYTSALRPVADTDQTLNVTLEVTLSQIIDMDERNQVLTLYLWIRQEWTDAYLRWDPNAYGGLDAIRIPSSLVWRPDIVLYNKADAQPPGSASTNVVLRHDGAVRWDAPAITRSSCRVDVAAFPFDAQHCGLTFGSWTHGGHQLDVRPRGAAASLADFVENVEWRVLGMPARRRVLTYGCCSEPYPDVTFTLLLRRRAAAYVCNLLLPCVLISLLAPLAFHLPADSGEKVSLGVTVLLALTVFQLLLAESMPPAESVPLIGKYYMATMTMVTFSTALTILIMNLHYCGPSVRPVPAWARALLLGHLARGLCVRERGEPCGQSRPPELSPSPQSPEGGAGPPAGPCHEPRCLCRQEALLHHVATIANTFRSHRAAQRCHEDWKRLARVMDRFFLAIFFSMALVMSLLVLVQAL
T2 sequence (Q9UGM1 23-479): as the sequence (Q9UGM1 23-479) above

Regarding `CC[N+]1(CC)CCN(c2ccc(C(F)(F)F)cc2)CC1` [pCF3-diEPP], the EC50 at α9α10 nAChR amounted to 6.4 µM; at α9 nAChR it was 7 µM.

A word on the EC50: it is the concentration giving half of the maximal effect. A low value points to a more potent agent.

The values above are taken from publication PMC9008208 (Frontiers in Cellular Neuroscience, 2022).
